Numbers after ± are expanded uncertainties.
Tests used:
[1] = 101.3 kPa, Liquid; for viscosity: Concentric cylinders viscometry; for mass density: Vibrating tube method
[2] = xn = mol fraction of the nth substance listed; conditions: 101.3 kPa, Liquid, x2 = 0; for viscosity: Concentric cylinders viscometry; for mass density: Vibrating tube method

CCCCn1cc[n+](C)c1C.O=S(=O)([N-]S(=O)(=O)C(F)(F)F)C(F)(F)F
[1]
Conditions | mass density [kg/m3] | viscosity [mPa·s]
293.15 K | 1423.1 ± 2.5 | 133.6 ± 2.3
298.15 K | 1418.5 ± 2.5 | 101.82 ± 1.6
303.15 K | 1413.9 ± 2.5 | 79.23 ± 1.1
308.15 K | 1409.3 ± 2.5 | 62.74 ± 0.78
313.15 K | 1404.8 ± 2.5 | 50.56 ± 0.6
318.15 K | 1400.2 ± 2.5 | 41.38 ± 0.5
323.15 K | 1395.6 ± 2.5 | 34.32 ± 0.42
328.15 K | 1391 ± 2.5 | 28.91 ± 0.35

CCn1cc[n+](C)c1C.O=S(=O)([N-]S(=O)(=O)C(F)(F)F)C(F)(F)F
[1]
Conditions | mass density [kg/m3] | viscosity [mPa·s]
293.15 K | 1495.8 ± 2.5 | 89.88 ± 1.3
298.15 K | 1491 ± 2.5 | 71.34 ± 0.92
303.15 K | 1486.3 ± 2.5 | 57.64 ± 0.7
308.15 K | 1481.5 ± 2.5 | 47.26 ± 0.58
313.15 K | 1476.7 ± 2.5 | 39.24 ± 0.48
318.15 K | 1472 ± 2.5 | 33 ± 0.4
323.15 K | 1467.2 ± 2.5 | 28.05 ± 0.34
328.15 K | 1462.4 ± 2.5 | 24.16 ± 0.29

CCOC(=O)OCC [diethyl carbonate]
[1]
Conditions | mass density [kg/m3] | viscosity [mPa·s]
293.15 K | 974.9 ± 2.4 | 0.805 ± 0.011
298.15 K | 969.3 ± 2.4 | 0.751 ± 0.01
303.15 K | 963.7 ± 2.4 | 0.702 ± 0.01
308.15 K | 958 ± 2.4 | 0.659 ± 0.009
313.15 K | 952.4 ± 2.4 | 0.62 ± 0.009
318.15 K | 946.7 ± 2.4 | 0.584 ± 0.008
323.15 K | 940.9 ± 2.4 | 0.552 ± 0.008
328.15 K | 935.2 ± 2.4 | 0.523 ± 0.008

CCOC(=O)OCC [diethyl carbonate] + CCCCn1cc[n+](C)c1C.O=S(=O)([N-]S(=O)(=O)C(F)(F)F)C(F)(F)F
[2]
Conditions | mass density [kg/m3] | viscosity [mPa·s]
293.15 K | 974.9 ± 2.4 | 0.805 ± 0.011
298.15 K | 969.3 ± 2.4 | 0.751 ± 0.01
303.15 K | 963.7 ± 2.4 | 0.702 ± 0.01
308.15 K | 958 ± 2.4 | 0.659 ± 0.009
313.15 K | 952.4 ± 2.4 | 0.62 ± 0.009
318.15 K | 946.7 ± 2.4 | 0.584 ± 0.008
323.15 K | 940.9 ± 2.4 | 0.552 ± 0.008
328.15 K | 935.2 ± 2.4 | 0.523 ± 0.008

CCOC(=O)OCC [diethyl carbonate] + CCn1cc[n+](C)c1C.O=S(=O)([N-]S(=O)(=O)C(F)(F)F)C(F)(F)F
[2]
Conditions | mass density [kg/m3] | viscosity [mPa·s]
293.15 K | 974.9 ± 2.4 | 0.805 ± 0.011
298.15 K | 969.3 ± 2.4 | 0.751 ± 0.01
303.15 K | 963.7 ± 2.4 | 0.702 ± 0.01
308.15 K | 958 ± 2.4 | 0.659 ± 0.009
313.15 K | 952.4 ± 2.4 | 0.62 ± 0.009
318.15 K | 946.7 ± 2.4 | 0.584 ± 0.008
323.15 K | 940.9 ± 2.4 | 0.552 ± 0.008
328.15 K | 935.2 ± 2.4 | 0.523 ± 0.008

COC(=O)OC [dimethyl carbonate]
[1]
Conditions | mass density [kg/m3] | viscosity [mPa·s]
293.15 K | 1069.7 ± 2.4 | 0.629 ± 0.009
298.15 K | 1063.1 ± 2.4 | 0.59 ± 0.008
303.15 K | 1056.4 ± 2.4 | 0.555 ± 0.008
308.15 K | 1049.7 ± 2.4 | 0.525 ± 0.008
313.15 K | 1043.1 ± 2.4 | 0.495 ± 0.007
318.15 K | 1036.4 ± 2.4 | 0.475 ± 0.007
323.15 K | 1029.6 ± 2.4 | 0.446 ± 0.007
328.15 K | 1022.8 ± 2.4 | 0.425 ± 0.007

COC(=O)OC [dimethyl carbonate] + CCCCn1cc[n+](C)c1C.O=S(=O)([N-]S(=O)(=O)C(F)(F)F)C(F)(F)F
[2]
Conditions | mass density [kg/m3] | viscosity [mPa·s]
293.15 K | 1069.7 ± 2.4 | 0.629 ± 0.009
298.15 K | 1063.1 ± 2.4 | 0.59 ± 0.008
303.15 K | 1056.4 ± 2.4 | 0.555 ± 0.008
308.15 K | 1049.7 ± 2.4 | 0.525 ± 0.008
313.15 K | 1043.1 ± 2.4 | 0.495 ± 0.007
318.15 K | 1036.4 ± 2.4 | 0.475 ± 0.007
323.15 K | 1029.6 ± 2.4 | 0.446 ± 0.007
328.15 K | 1022.8 ± 2.4 | 0.425 ± 0.007

COC(=O)OC [dimethyl carbonate] + CCn1cc[n+](C)c1C.O=S(=O)([N-]S(=O)(=O)C(F)(F)F)C(F)(F)F
[2]
Conditions | mass density [kg/m3] | viscosity [mPa·s]
293.15 K | 1069.7 ± 2.4 | 0.629 ± 0.009
298.15 K | 1063.1 ± 2.4 | 0.59 ± 0.008
303.15 K | 1056.4 ± 2.4 | 0.555 ± 0.008
308.15 K | 1049.7 ± 2.4 | 0.525 ± 0.008
313.15 K | 1043.1 ± 2.4 | 0.495 ± 0.007
318.15 K | 1036.4 ± 2.4 | 0.475 ± 0.007
323.15 K | 1029.6 ± 2.4 | 0.446 ± 0.007
328.15 K | 1022.8 ± 2.4 | 0.425 ± 0.007

Source: the NIST ThermoML archive (doi:10.1016/j.jct.2018.10.015)
